Test results from publication PMC6770581, “New Thalidomide-Resembling Dicarboximides Target ABC50 Protein and Show Antileukemic and Immunomodulatory Activities” (Biomolecules, 2019).
Like-named read-outs stand apart in the source and are kept apart here.

Key:
HeLa cells [1] = settings: 48 h, MTT, mean ± SD; cited from earlier work
MOLT-4 cells = experiment: MTT cytotoxicity assay, MOLT-4; format: cell-based; settings: Homo sapiens, 48 h, mean ± SD
Description: (§1) Human umbilical vein endothelial cells (purchased from Life Technologies, Carlsbad, CA, USA) were cultured according to the manufacturer’s instructions in Medium 200 supplemented with Low Serum Growth Supplement. 1 × 10^4 cells were seeded on each well on a 96-well plate (Nunc, Roskilde, Denmark). The HeLa (human cervix carcinoma, cat. #93021013), CFPAC (human pancreatic adenocarcinoma, cat. #91112501), K562 (chronic myelogenous leukemia, cat. #89121407), HL-60 (acute myelogenous leukemia, cat. #98070106), and MOLT-4 (Human acute T lymphoblastic leukemia, cat. #85011413) cells were purchased from European Collection of Authenticated Cell Cultures (ECACC). They were cultured in an RPMI 1640 medium supplemented with antibiotics (streptomycin, penicillin) and 10% fetal calf serum (20% for HL60), in a 5% CO2-95% air atmosphere. 7 × 10^3 cells were seeded on each well on a 96-well plate (Nunc). 24 hours later the cells were exposed to the test compounds. The aliquots of stock solutions of the test compounds (freshly prepared in DMSO) were added to the cell cultures to yield final concentrations of 1, 10^−1, 10^−2, 10^−3, 10^−4, and 10^−5 mM. The concentration of DMSO in the cell culture medium was 1%. The IC50 value (the concentration of a test compound required to reduce the cell survival fraction to 50% of the control) was calculated from a dose-response curve and used as a measure of cellular sensitivity to a given treatment. The IC50 values are given as means (± standard deviation (SD)) from 2 independent experiments with 4 technical replicates. The cytotoxicity of all compounds was determined by the MTT (3-(4,5-dimethylthiazol-2-yl)-2,5-diphenyltetrazolium bromide) assay (Sigma, St. Louis, MO, USA). Briefly, after 24 h or 48 h of incubation with a given compound, the cells were treated with the MTT reagent and incubation was continued for 2 h. MTT-formazan crystals were dissolved in 20% SDS and 50% DMF at pH 4.7 and VIS light absorption was measured at 570 and 650 nm on a microplate reader FLUOstar Omega (BMG Labtech, Offenburg, Germany). As a control (100% viability), cells grown in the presence of 1% DMSO were used.

K562 cells [2] = settings: 48 h, MTT, mean ± SD; cited from earlier work
[3] = system: HUVEC (human umbilical vein endothelial cells); settings: 48 h, MTT, mean ± SD; cited from earlier work
CFPAC cells = experiment: MTT cytotoxicity assay, CFPAC; format: cell-based; settings: Homo sapiens, 48 h, mean ± SD
Description: as §1

HL-60 cells = settings: 48 h, MTT, mean ± SD; cited from earlier work
[4] = system: HUVEC (human umbilical vein endothelial cells); experiment: MTT cytotoxicity assay, HUVEC; format: cell-based; settings: 48 h, mean ± SD
Description: as §1

HeLa cells [5] = experiment: MTT cytotoxicity assay, HeLa; format: cell-based; settings: Homo sapiens, 48 h, mean ± SD
Description: as §1

K562 cells [6] = experiment: MTT cytotoxicity assay, K562; format: cell-based; settings: Homo sapiens, 48 h, mean ± SD
Description: as §1

ABC50 = ABC50 (Homo sapiens, UniProt Q8NE71); experiment: Streptavidin-agarose pull-down from K562 cell lysate with LC-MS-MS/MS and Western blot identification; format: binding; parameters: endogenous in cells; host or cells: K562 cell lysate
Description: Cells were lysed in TBS buffer containing 1% Triton X-100 and Complete® protease inhibitor cocktail (Roche) for 15 min on ice with occasional vortexing. Insoluble material was centrifuged (12,000 rpm, 15 min, 4 °C) and supernatants were collected. Total protein concentration was measured with DC Protein Assay (Bio-Rad, Hercules, CA, USA). Cell lysates containing 30 µg of total protein were mixed with Laemli buffer supplemented with SDS and β-mercaptoethanol, denatured (10 min, 95 °C) and subjected to sodium dodecyl sulfate polyacrylamide gel electrophoresis (SDS-PAGE) electrophoresis (4% stacking and 10% resolving gels). Resolved proteins were electrotransferred (semi-dry, 90 min, 1.5 mA/cm^2) to a 0.45 µm nitrocellulose membrane (Thermo Scientific, Waltham, MA, USA). Membranes were blocked for 2 hours in TBST buffer (20 mM Tris-HCl pH 7.5, 0.9% NaCl, 0.1% Tween 20) containing 5% BSA (BioShop, Burlington, ON, Canada) and probed with primary antibodies (overnight at 4 °C) diluted in TBST buffer with 0.5% BSA. Tubulin served as a loading control for IB experiments. Anti IKZF3 (rabbit monoclonal, dilution 1:500), anti IKZF1 (rabbit polyclonal, dilution 1:500) were from Abcam. Anti IRF4 (rabbit polyclonal, dilution 1:500) were from Cell Signaling Technology. Anti α-tubulin (mouse monoclonal IgG, 1:1000) was from Sigma Aldrich. Anti ABC50 antibodies (mouse monoclonal ABC5H06, dilution 1:100) was from Abcam. After extensive washing with TBST buffer, membranes were probed with secondary goat anti-rabbit or goat anti-mouse HRP-conjugated IgG (1:5000 in TBST, Santa Cruz Biotech, Dallas, TX, USA) for 45 min at room temperature. Membranes were washed in TBST buffer and the chemiluminescent signal was developed with ECL Plus Western Blotting Substrate (Thermo Scientific) and visualized in Syngene G:Box detection system. Protein bands intensities were analysed using Image Quant (version 5.0, GE Healthcare Life Sciences, Pittsburgh, PA, USA).
300 nmoles of biotinylated 6b was added to 0.6 mL of the high capacity streptavidin agarose resin (Thermo Scientific, Waltham, MA, USA) equilibrated in 50% DMSO and incubated for 2 h (room temperature, gently mixing, total volume 0.7 mL). The K562 cell lysate was prepared in the buffer containing 0.5% NP-40 and supplemented with protease inhibitors coctail (Roche). Next, the beads with immobilized 6b were added to the K562 cell lysate (9 mg of total protein) and incubated for 2 h at 4 °C with gently mixing. As a control, K562 cell lysate incubated with the streptavidin agarose beads was used. After incubation the beads were centrifuged (2000 rpm, 2 min, 4 °C) and washed 6 times with 5 mL of lysis buffer. After the last wash, the beads were resuspended in Laemli buffer and denatured 10 min at 95 °C. Released proteins (40 µL/well) were separated by SDS-PAGE (4% stacking, 8% resolving gel) and silver stained with Pierce Silver Stain Kit (Thermo Scientific, Waltham, MA, USA). Bands of interest were cut out of the gel and digested with trypsin. Tryptic peptides were separated by liquid chromatography (LC) and analyzed by LC-MS-MS/MS with Orbitrap mass spectrometer (Thermo). The sequences of the MS/MS spectra were identified by correlation with the human protein sequence database (Sprot 2016_11, H.) using MASCOT software (version 2.6.2, Matrix Science Inc., Boston, MA, USA) (http://www.matrixscience.com/). The significance threshold was p < 0.05 and ions score or expect cut-off was 22.

K562 cells [7] = experiment: Annexin V/PI or 7-AAD flow cytometry of apoptosis, K562; format: cell-based, human; settings: K562, 5× IC50 (3 10 µM, 6 5 µM, 5 5 µM), staurosporine 1 µM; different incubation times for 3, 6 and 5
Description: The phosphatidylserine on the extracellular side of cell membranes was quantified using an FITC Annexin V Apoptosis Detection Kit I (BD Pharmingen, San Diego, CA, USA) according to the manufacturer’s instruction. 10^6 cells were seeded on a 6-well plate (Nunc). […] The control cells were exposed to 1% DMSO or 1μM staurosporine. After treatment the cells were centrifuged at 700 rpm (120× g) for 5 min, washed twice with cold PBS and then resuspended in 1x binding buffer to a density of 10^6 cells/ml. 100 µL of the resuspended cells was stained in the dark with 5 μl of Annexin V-fluoroscein isothiocyanate (FITC) solution and 10 µL propidium iodide (PI) solution for 15 min at room temperature. The samples were then diluted with 400 μL of a binding buffer and within 1 h analyzed with a flow cytometer (BD FACSCalibur^TM, BD Biosciences, San Jose, CA, USA). After treatment, four populations of cells were assessed: (1) viable (neither apoptotic nor necrotic, Annexin V-FITC and PI negative), (2) apoptotic (Annexin V-FITC positive and PI negative), (3) late apoptotic (Annexin V-FITC and PI positive), and (4) necrotic (Annexin V-FITC negative and PI positive).
0.15 × 10^6 cells/ml were seeded on a 6-well plate (Nunclon, Thermo Fisher Scientific, Waltham, MA, USA). Following 24 h preincubation the cells were treated with either the compound or 1% DMSO (control) for 24 or 48 h. After indicated time, the cells were washed with cold PBS (w/o Mg^2+, Ca^2+), stained with Annexin V (FITC Annexin V Apoptosis Detection Kit with 7-aminoactinomycin D (7-AAD), Biolegend, San Diego, CA, USA) according to manufacturer instructions and analysed using BD FACSCalibur flow cytometer. Obtained Flow Cytometry Standard files were analyzed using BD FACSDiva Software (FACSDiva Version 6.1.3, Becton Dickinson Biosciences, San Jose, CA, USA). The experiment was performed three times in at least two technical replicates.

ABC50, sequence (Q8NE71 whole entry): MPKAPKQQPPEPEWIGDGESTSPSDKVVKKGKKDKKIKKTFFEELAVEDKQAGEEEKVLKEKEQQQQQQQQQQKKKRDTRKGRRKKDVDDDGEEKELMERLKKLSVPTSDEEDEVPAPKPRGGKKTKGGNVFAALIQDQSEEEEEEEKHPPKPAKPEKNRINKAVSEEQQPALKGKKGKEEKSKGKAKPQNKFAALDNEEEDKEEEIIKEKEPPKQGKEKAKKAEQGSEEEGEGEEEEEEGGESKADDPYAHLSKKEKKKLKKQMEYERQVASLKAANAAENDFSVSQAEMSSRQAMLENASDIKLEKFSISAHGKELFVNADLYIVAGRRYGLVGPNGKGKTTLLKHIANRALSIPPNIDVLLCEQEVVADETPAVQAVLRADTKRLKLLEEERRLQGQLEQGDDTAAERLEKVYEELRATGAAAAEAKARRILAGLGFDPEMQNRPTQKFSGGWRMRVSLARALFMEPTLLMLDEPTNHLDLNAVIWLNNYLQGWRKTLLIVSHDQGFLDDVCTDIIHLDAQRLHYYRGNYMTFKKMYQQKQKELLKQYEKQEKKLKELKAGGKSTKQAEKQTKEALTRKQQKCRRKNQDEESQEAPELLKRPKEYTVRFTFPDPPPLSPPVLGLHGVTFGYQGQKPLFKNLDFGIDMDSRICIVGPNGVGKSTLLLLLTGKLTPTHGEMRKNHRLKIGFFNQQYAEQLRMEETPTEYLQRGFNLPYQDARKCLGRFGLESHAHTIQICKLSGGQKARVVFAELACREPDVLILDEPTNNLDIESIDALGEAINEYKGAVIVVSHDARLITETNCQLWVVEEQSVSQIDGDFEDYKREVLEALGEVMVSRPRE

Row | Structure (SMILES) | IC50 (HeLa cells [1]) [µM] | IC50 (MOLT-4 cells) [µM] | IC50 (K562 cells [2]) [µM] | IC50 [3] [µM] | IC50 (HL-60 cells) [µM] | further results
1 | CCC12C(=O)C(CC)(C(c3ccccc3)=C1c1ccccc1)C1C(=O)N(CCN(C)C)C(=O)C12 (stereo not shown) [Compound 1] | > 100 | 20 ± 2.7 | 10 ± 0.59 | > 100 | > 100 | IC50 (CFPAC cells): > 1000 µM
2 | CCN(CC)CCN1C(=O)C2C(C1=O)C1(CC)C(=O)C2(CC)C(c2ccccc2)=C1c1ccccc1 (stereo not shown) [Compound 2] | > 100 | 30 ± 2.3 | 4.5 ± 0.29 | > 100 | > 100 | IC50 (CFPAC cells): > 1000 µM
3 | CCC12C(=O)C(CC)(C(c3ccccc3)=C1c1ccccc1)C1C(=O)N(CCCN(C)C)C(=O)C12 (stereo not shown) [Compound 4] | > 100 | 30 ± 2 | 8 ± 0.53 | > 100 | > 100 | IC50 (CFPAC cells): > 1000 µM
4 | NCC(O)CN1C(=O)C2C(C1=O)C1(c3ccccc3)CC2(c2ccccc2)C(c2ccccc2)=C1c1ccccc1 (stereo not shown) [Compound 6a, 4-[-3-(amino)-2-hydroxypropyl]-1,7,8,9-tetraphenyl-4-azatricyclo[5.2.1.0^2,6]dec-8-ene-3,5-dione] | – | 5 ± 0.59 | – | – | – | IC50 [4]: > 100 µM; IC50 (HeLa cells [5]): 20 ± 1.9 µM; IC50 (K562 cells [6]): 12 ± 1.5 µM
5 | O=C(CCCCC1SCC2NC(=O)NC21)NCC(O)CN1C(=O)C2C(C1=O)C1(c3ccccc3)CC2(c2ccccc2)C(c2ccccc2)=C1c1ccccc1 (stereo not shown) [Compound 6b] | – | 1.5 ± 0.06 | – | – | – | IC50 [4]: 3.8 ± 0.22 µM; Description of protein identified, band 1 (ABC50; K562 lysate pull-down, SDS-PAGE band No. 1, LC-MS-MS/MS): Talin-1; Description of protein identified, band 2 (ABC50; K562 lysate pull-down, SDS-PAGE band No. 2, LC-MS-MS/MS): ATP-binding cassette sub-family F member 1 (ABCF1 or ABC50); Description of protein identified, band 3 (ABC50; K562 lysate pull-down, SDS-PAGE band No. 3, LC-MS-MS/MS): ABC50; Description of protein identified, band 4 (ABC50; K562 lysate pull-down, SDS-PAGE band No. 4, LC-MS-MS/MS): ABC50; Description of protein identified, band 5 (ABC50; K562 lysate pull-down, SDS-PAGE band No. 5, LC-MS-MS/MS): ABC50; Description of protein identified, band 6 (ABC50; K562 lysate pull-down, SDS-PAGE band No. 6, LC-MS-MS/MS): ABC50; protein identified by mass spectrometry in pulled-down bands (ABC50; K562 lysate, immobilized on streptavidin-agarose, five out of six bands): ABC50 protein was identified and significantly enriched; Western blot analysis of pull-down material for ABC50 (ABC50; K562 lysate, mouse monoclonal anti ABC50 antibodies): confirmed the presence of ABC50; IC50 (HeLa cells [5]): 64 ± 10 µM; IC50 (K562 cells [6]): 7 ± 1.2 µM
6 | CC(C)C[C@H](NC(=O)[C@H](Cc1ccccc1)NC(=O)c1cnccn1)B(O)O [bortezomib, reference compound] | 0.05 ± 0.01 | – | 0.04 ± 0.01 | < 0.01 | 0.3 ± 0.1 | –
7 | Nc1ccn([C@@H]2O[C@H](CO)[C@@H](O)[C@@H]2O)c(=O)n1 [cytarabine, reference compound] | > 1000 | – | 300 ± 19 | > 1000 | 300 ± 18 | –
8 | COc1cccc2c1C(=O)c1c(O)c3c(c(O)c1C2=O)C[C@@](O)(C(=O)CO)C[C@@H]3O[C@H]1C[C@H](N)[C@H](O)[C@H](C)O1 [doxorubicin, reference compound] | 0.5 ± 0.01 | – | 0.15 ± 0.01 | 0.1 ± 0.03 | 0.15 ± 0.03 | –
9 | CCc1c2c(nc3ccc(OC(=O)N4CCC(N5CCCCC5)CC4)cc13)-c1cc3c(c(=O)n1C2)COC(=O)[C@]3(O)CC [irinotecan, reference compound] | 200 ± 11 | – | 10 ± 0.9 | 30 ± 3.7 | 70 ± 2.5 | –
10 | CNC(=O)c1cc(Oc2ccc(NC(=O)Nc3ccc(Cl)c(C(F)(F)F)c3)cc2)ccn1 [sorafenib, reference compound] | 20 ± 2.6 | – | 3 ± 0.3 | 20 ± 4.1 | 15 ± 0.6 | –
11 | CN[C@@H]1C[C@H]2O[C@@](C)([C@@H]1OC)n1c3ccccc3c3c4c(c5c6ccccc6n2c5c31)C(=O)NC4 [staurosporine, reference compound] | – | – | – | – | – | apoptotic cells, early (LR) and late (UR) (K562 cells [7]): about 25%
